US9908897B2, “Spirocyclic derivatives” (CHRONOS THERAPEUTICS LIMITED, priority 2014, dated 2018)

How the values were obtained:
[1] = molecular target: human dopamine transporter (DAT) (Homo sapiens (Human), UniProt Q01959); assay: Scintillation Proximity Assay (SPA) competition binding, human DAT; conditions: recombinant hDAT-CHO membranes, [3H]WIN-35,428
Source text: (§1) Measure of Affinity to the Human Transporters DAT, NET and SERT
In the context of the present invention pKi values (corresponding to the antilogarithm of Ki) are used instead of Ki; pKi are only estimated to be accurate to about 0.3 log unit.
(§2) Scintillation Proximity Assay (SPA) for Human DAT, NET and SERT Binding
(§3) Chinese Hamster Ovary (CHO) cells stably expressing either human DAT (hDAT-CHO) or human NET (hNET-CHO) or human SERT (hSERT-CHO) are used for the membrane preparations for radioligand binding assays using Scintillation proximity Assay (SPA) technique. Each cell line is cultured independently in F-12K Nutrient Mixture containing 10% of Fetal Bovine Serum (FBS) supplemented with 450 μg/ml G-418. When cells are at 70-80% of confluence 3 mM Na Butyrate was added to the cell culture medium. After 24 h of incubation, the culture medium was removed and the cells detached with Versene (DAT) or by scraping (NET and SERT). Cell suspension is centrifuged at 41,000 g for 10 minutes at 4° C. The resultant pellets are re-suspended in 15 volumes of Ice-cold buffer (20 mM HEPES, 145 mM NaCl, 5 mM KCl, pH7.3), homogenized using an Ultra Turrax homogeniser and centrifuged as before. The resultant membrane pellets are re-suspended in up to 15 volume of ice-cold buffer, incubated for 20 minutes at 37-C and centrifuged as before at 41,000 g. The final membrane pellets are re-suspended into 5-10 volumes of ice-cold buffer, dispensed into 0.5 ml aliquots and stored at −80° C. until use. Protein concentration for each preparation is determined using Bio-Rad Protein Assay kit.
(§4) The affinity of the compounds of the invention to the human DAT or NET or SERT transporters is assessed by using the [^3H]WIN-35,428 or [^3H]nisoxetine or [^3H]citalopram binding assays in recombinant human DAT, NET and SERT membranes with the SPA technology. The final assay volume is 50 μL in 384 well plates.
(§5) Briefly, 0.5 μL of test compound in neat DMSO or 0.5 μL of DMSO for total binding (TB) or 0.5 μL of indatraline 1 mM (10 μM final concentration) for non specific binding (NSB) are added to the assay plate. 50 μL of the SPA mixture is added to each well, containing: 30 μg/mL or 10 μg/mL or 25 μg/mL DAT, NET, SERT membranes, respectively; 5 nM [^3H]WIN-35,428 or 5 nM [^3H]nisoxetine or 1 nM [^3H]citalopram, for DAT, NET, SERT assay, respectively; 2.5 mg/mL or 1 mg/mL or 4 mg/mL WGA-PVT SPA beads (PerkinElmer RPNQ0001, for DAT, NET, SERT assay, respectively. All components are added to Assay Buffer (20 mM HEPES pH 7.4, 145 mM NaCl, 5 mM KCl, 0.01% Pluronic F-127). 0.02% BSA was used for DAT binding only. Plates are sealed with Topseal A and centrifuged 1 min, 800 rpm. Plates are loaded into a 1450 Microbeta TriLux (Perkin-Elmer) plate reader and the radioactivity counted after at least 4 hrs or overnight incubation at room temperature. Curve fitting and IC50 estimations are performed using a four parameter model in XLfit (IDBS, Guilford, UK) for Microdoft Excel (Microsoft, Redmond, Wash.).

[2] = molecular target: human norepinephrine transporter (NET) (Homo sapiens (Human), UniProt P23975); assay: Scintillation Proximity Assay (SPA) competition binding, human NET; conditions: recombinant hNET-CHO membranes, [3H]nisoxetine
human norepinephrine transporter (NET), sequence (P23975 whole entry): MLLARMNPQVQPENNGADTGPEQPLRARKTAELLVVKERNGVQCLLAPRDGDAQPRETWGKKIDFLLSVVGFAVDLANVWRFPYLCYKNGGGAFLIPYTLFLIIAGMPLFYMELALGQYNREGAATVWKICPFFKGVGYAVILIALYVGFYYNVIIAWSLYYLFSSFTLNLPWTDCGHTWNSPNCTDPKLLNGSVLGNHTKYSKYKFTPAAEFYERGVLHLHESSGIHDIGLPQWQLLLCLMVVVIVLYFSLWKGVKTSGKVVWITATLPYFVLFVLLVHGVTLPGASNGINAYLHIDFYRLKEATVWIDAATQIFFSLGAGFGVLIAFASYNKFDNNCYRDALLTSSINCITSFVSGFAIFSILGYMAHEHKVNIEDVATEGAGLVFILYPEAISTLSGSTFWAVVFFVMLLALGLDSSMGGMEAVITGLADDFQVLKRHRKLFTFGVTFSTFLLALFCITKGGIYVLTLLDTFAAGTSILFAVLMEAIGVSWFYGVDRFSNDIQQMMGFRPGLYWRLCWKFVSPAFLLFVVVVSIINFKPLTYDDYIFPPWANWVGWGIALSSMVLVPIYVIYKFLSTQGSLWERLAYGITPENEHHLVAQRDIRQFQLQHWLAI
Source text: as §1
(§6) Affinity is expressed in terms of inhibition constant (Ki) of the compounds of the invention for DAT, NET and SERT, and it is typically calculated from the IC50 values obtained in competition experiments using Cheng and Prusoff equation (Cheng and Prusoff, Biochem. Pharmacol. 22:3099, 1973). In the context of the present invention pKi values (corresponding to the antilogarithm of Ki) are used instead of Ki; pKi are only estimated to be accurate to about 0.3 log unit.
as §2, §3, §4, §5

[3] = molecular target: human serotonin transporter (SERT) (Homo sapiens (Human), UniProt P31645); assay: Scintillation Proximity Assay (SPA) competition binding, human SERT; conditions: recombinant hSERT-CHO membranes, [3H]citalopram
human serotonin transporter (SERT), sequence (P31645 whole entry): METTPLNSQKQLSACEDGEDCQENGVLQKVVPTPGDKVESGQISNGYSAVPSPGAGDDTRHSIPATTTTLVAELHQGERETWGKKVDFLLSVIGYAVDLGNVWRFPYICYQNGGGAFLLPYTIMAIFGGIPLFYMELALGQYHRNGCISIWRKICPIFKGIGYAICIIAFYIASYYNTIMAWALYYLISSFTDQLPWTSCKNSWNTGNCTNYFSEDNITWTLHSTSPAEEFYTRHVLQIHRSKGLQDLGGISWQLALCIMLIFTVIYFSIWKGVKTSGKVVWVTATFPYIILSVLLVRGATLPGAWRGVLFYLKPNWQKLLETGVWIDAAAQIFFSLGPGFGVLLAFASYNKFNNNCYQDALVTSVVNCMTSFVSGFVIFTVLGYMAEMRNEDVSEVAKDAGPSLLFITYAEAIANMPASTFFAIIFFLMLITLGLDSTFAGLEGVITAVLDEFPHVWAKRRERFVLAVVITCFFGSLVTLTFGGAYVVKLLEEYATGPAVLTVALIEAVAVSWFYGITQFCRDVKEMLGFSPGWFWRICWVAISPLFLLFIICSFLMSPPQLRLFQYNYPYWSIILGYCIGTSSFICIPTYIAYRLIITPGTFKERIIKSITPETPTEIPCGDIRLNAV
Source text: as §1, §6, §2, §3, §4, §5

human dopamine transporter (DAT), sequence (Q01959 whole entry): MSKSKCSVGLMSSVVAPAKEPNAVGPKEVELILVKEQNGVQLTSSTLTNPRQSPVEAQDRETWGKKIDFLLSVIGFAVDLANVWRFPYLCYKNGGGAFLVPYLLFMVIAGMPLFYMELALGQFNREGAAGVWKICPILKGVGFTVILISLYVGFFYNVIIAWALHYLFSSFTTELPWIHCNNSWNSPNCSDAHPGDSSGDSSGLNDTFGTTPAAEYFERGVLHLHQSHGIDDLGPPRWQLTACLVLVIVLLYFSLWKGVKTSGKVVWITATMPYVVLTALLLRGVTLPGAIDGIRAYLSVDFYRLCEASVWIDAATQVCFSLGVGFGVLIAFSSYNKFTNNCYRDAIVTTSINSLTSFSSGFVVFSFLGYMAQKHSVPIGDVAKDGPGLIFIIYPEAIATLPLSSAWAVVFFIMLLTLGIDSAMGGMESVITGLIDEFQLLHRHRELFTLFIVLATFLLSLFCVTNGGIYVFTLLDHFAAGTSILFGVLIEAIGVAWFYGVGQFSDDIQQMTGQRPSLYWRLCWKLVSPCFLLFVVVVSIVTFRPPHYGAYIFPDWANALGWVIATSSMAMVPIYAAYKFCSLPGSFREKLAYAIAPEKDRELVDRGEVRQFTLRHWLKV

Structure (SMILES): Cl.N#Cc1c(C(F)(F)F)cc(Oc2cccc(F)c2)nc1N1CCC2(CC1)CNCCO2 [Example 40, 6-(3-fluorophenoxy)-2-{1-oxa-4,9-diazaspiro[5.5]undecan-9-yl}-4-(trifluoromethyl)pyridine-3-carbonitrile hydrochloride]
- pIC50 DAT [1]: 7.25
- pIC50 NET [2]: 6.29
- pIC50 SERT [3]: 5.35

Structure (SMILES): Cc1cc(Oc2cccc(OC(F)(F)F)c2)nc(N2CCC3(CC2)CNCCO3)n1.Cl [Example 47, 9-{4-methyl-6-[3-(trifluoromethoxy)phenoxy]pyrimidin-2-yl}-1-oxa-4,9-diazaspiro[5.5]undecane hydrochloride]
- pIC50 DAT [1]: 6.59
- pIC50 NET [2]: 5.51
- pIC50 SERT [3]: 5.27

Structure (SMILES): Cc1cc(Oc2cc(F)cc(F)c2)nc(N2CCC3(CC2)CNCCO3)n1.Cl [Example 50, 9-[4-(3,5-difluorophenoxy)-6-methylpyrimidin-2-yl]-1-oxa-4,9-diazaspiro[5.5]undecane hydrochloride]
- pIC50 DAT [1]: 8.24
- pIC50 NET [2]: 6.96
- pIC50 SERT [3]: 5.11

Structure (SMILES): Cc1cc(Oc2ccccc2C)nc(N2CCC3(CC2)CNCCO3)n1.Cl [Example 51, 9-[4-methyl-6-(2-methylphenoxy)pyrimidin-2-yl]-1-oxa-4,9-diazaspiro[5.5]undecane hydrochloride]
- pIC50 DAT [1]: 7.33
- pIC50 NET [2]: 5.78
- pIC50 SERT [3]: 5.21

Structure (SMILES): COc1ccccc1Oc1cc(C)nc(N2CCC3(CC2)CNCCO3)n1.Cl [Example 52, 9-[4-(2-methoxyphenoxy)-6-methylpyrimidin-2-yl]-1-oxa-4,9-diazaspiro[5.5]undecane hydrochloride]
- pIC50 DAT [1]: 5.96
- pIC50 NET [2]: 5.30
- IC50 [3]: > 100 µM

Structure (SMILES): Cc1cc(Oc2cccnc2)nc(N2CCC3(CC2)CNCCO3)n1.Cl [Example 53, 9-[4-methyl-6-(pyridin-3-yloxy)pyrimidin-2-yl]-1-oxa-4,9-diazaspiro[5.5]undecane hydrochloride]
- pIC50 DAT [1]: 6.63
- pIC50 NET [2]: 5.21
- pIC50 SERT [3]: 4.56

Structure (SMILES): Cc1cnc(N2CCC3(CC2)CNCCO3)nc1Oc1cccc(F)c1.Cl [Example 54, 9-[4-(3-fluorophenoxy)-5-methylpyrimidin-2-yl]-1-oxa-4,9-diazaspiro[5.5]undecane hydrochloride]
- pIC50 DAT [1]: 6.96
- pIC50 NET [2]: 5.34
- pIC50 SERT [3]: 5.00

Structure (SMILES): Cl.Fc1cccc(Oc2cc(C(F)(F)F)nc(N3CCC4(CC3)CNCCO4)n2)c1 [Example 56, 9-[4-(3-fluorophenoxy)-6-(trifluoromethyl)pyrimidin-2-yl]-1-oxa-4,9-diazaspiro[5.5]undecane hydrochloride]
- pIC50 DAT [1]: 8.42
- pIC50 NET [2]: 6.37
- pIC50 SERT [3]: 5.77

Structure (SMILES): Cl.Fc1ccc(Oc2cc(C(F)(F)F)nc(N3CCC4(CC3)CNCCO4)n2)cc1 [Example 58, 9-[4-(4-fluorophenoxy)-6-(trifluoromethyl)pyrimidin-2-yl]-1-oxa-4,9-diazaspiro[5.5]undecane hydrochloride]
- pIC50 DAT [1]: 7.53
- pIC50 NET [2]: 5.52
- pIC50 SERT [3]: 7.31

Structure (SMILES): Cl.FC(F)(F)c1cc(Oc2cccs2)nc(N2CCC3(CC2)CNCCO3)n1 [Example 60, 9-[4-(thiophen-2-yloxy)-6-(trifluoromethyl)pyrimidin-2-yl]-1-oxa-4,9-diazaspiro[5.5]undecane hydrochloride]
- pIC50 DAT [1]: 7.34
- pIC50 NET [2]: 5.75
- pIC50 SERT [3]: 5.83

Structure (SMILES): COc1cc(Cc2ccccc2)nc(N2CCC3(CC2)CNCCO3)n1.Cl [Example 61, 9-(4-benzyl-6-methoxypyrimidin-2-yl)-1-oxa-4,9-diazaspiro[5.5]undecane hydrochloride]
- pIC50 DAT [1]: 6.67
- pIC50 NET [2]: 5.29
- pIC50 SERT [3]: 4.89

Structure (SMILES): CSc1cc(Oc2cccc(F)c2)nc(N2CCC3(CC2)CNCCO3)n1.Cl [Example 63, 9-[4-(3-fluorophenoxy)-6-(methylsulfanyl)pyrimidin-2-yl]-1-oxa-4,9-diazaspiro[5.5]undecane hydrochloride]
- pIC50 DAT [1]: 8.07
- pIC50 NET [2]: 6.34
- pIC50 SERT [3]: 5.15

Structure (SMILES): CSc1cc(N2CCC3(CC2)CNCCO3)nc(Oc2cccc(F)c2)n1.Cl [Example 64, 9-[2-(3-fluorophenoxy)-6-(methylsulfanyl)pyrimidin-4-yl]-1-oxa-4,9-diazaspiro[5.5]undecane hydrochloride]
- pIC50 DAT [1]: 6.38
- pIC50 NET [2]: 5.35
- pIC50 SERT [3]: 4.86

Structure (SMILES): Cl.Fc1cccc(Oc2cc(C(F)(F)F)nc(N3CCOC4(CCNCC4)C3)n2)c1 [Example 67, 4-[4-(3-fluorophenoxy)-6-(trifluoromethyl)pyrimidin-2-yl]-1-oxa-4,9-diazaspiro[5.5]undecane hydrochloride]
- pIC50 DAT [1]: 7.80
- pIC50 NET [2]: 6.02
- pIC50 SERT [3]: 5.32

Structure (SMILES): Cl.Fc1cccc(Oc2cc(F)c(F)cc2N2CCC3(CC2)CNCC(F)(F)O3)c1 [Example 69, 9-[4,5-difluoro-2-(3-fluorophenoxy)phenyl]-2,2-difluoro-1-oxa-4,9-diazaspiro[5.5]undecane hydrochloride]
- pIC50 DAT [1]: 5.97
- pIC50 NET [2]: 5.06
- IC50 [3]: > 100 µM

Structure (SMILES): O=C1CNCC2(CCN(c3nc(Oc4cccc(F)c4)cc(C(F)(F)F)n3)CC2)N1 [Example 73, 9-[4-(3-fluorophenoxy)-6-(trifluoromethyl)pyrimidin-2-yl]-1,4,9-triazaspiro[5.5]undecan-2-one]
- pIC50 DAT [1]: 6.32
- pIC50 NET [2]: 4.82
- IC50 [3]: > 100 µM

Structure (SMILES): CN1CCNCC12CCN(c1nc(Oc3cccc(F)c3)cc(C(F)(F)F)n1)CC2 [Example 74, 9-[4-(3-fluorophenoxy)-6-(trifluoromethyl)pyrimidin-2-yl]-1-methyl-1,4,9-triazaspiro[5.5]undecane]
- pIC50 DAT [1]: 8.38
- pIC50 NET [2]: 6.42
- pIC50 SERT [3]: 4.95

Structure (SMILES): Fc1cccc(Oc2cc(C(F)(F)F)nc(N3CCC4(CC3)CNCCN4)n2)c1 [Example 75, 9-[4-(3-fluorophenoxy)-6-(trifluoromethyl)pyrimidin-2-yl]-1,4,9-triazaspiro[5.5]undecane]
- pIC50 DAT [1]: 8.88
- pIC50 NET [2]: 6.54
- pIC50 SERT [3]: 5.18

Structure (SMILES): CN1CCCNC(=O)C12CCN(c1nc(Oc3cccc(F)c3)cc(C(F)(F)F)n1)CC2 [Example 76, 3-[4-(3-fluorophenoxy)-6-(trifluoromethyl)pyrimidin-2-yl]-7-methyl-3,7,11-triazaspiro[5.6]dodecan-12-one]
- pIC50 DAT [1]: 7.28
- pIC50 NET [2]: 4.88
- IC50 [3]: > 100 µM
